For assay [1], the target named is T1, human Nav1.3 (Homo sapiens, UniProt Q9NY46).
T1 construct: expressed in transfected cells; host or cells: HEK293
The experiment in a line: FRET assay, human Nav1.3 channels expressed in HEK293 cells. Type of assay: cell-based. The note with it: HEK293 cells expressing human NaV1.3, veratridine-opened channels. The protocol:
(§1) The ability of the picolinamide derivatives of the formula (I) to inhibit the NaV1.3,Nav1.7 and Nav1.5 channels was measured by FRET assay and electrophysiology assay described below.
(§2) This screen is used to determine the effects of compounds on human Nav1.3, human Nav1.7, and human Nav1.5 channels, utilising the cell imaging technology by Hamamatsu Photonics's Functional Drug Screening System (FDSS). This experiment is based on FRET (Fluorescence Resonance Energy Transfer) and uses two fluorescent molecules. The first molecule, Oxonol (DiSBAC2(3)), is a highly fluorescent, negatively charged, hydrophobic ion that “senses” the trans-membrane electrical potential. In response to changes in membrane potential, it can rapidly redistribute between two binding sites on opposite sides of the plasma membrane. The voltage dependent redistribution is transduced into a ratiometric fluorescent readout via a second fluorescent molecule (Coumarin (CC2-DMPE)) that binds specifically to one face of the plasma membrane and functions as a FRET partner to the mobile voltage-sensing ion. To enable the assay to work, the channels have to be pharmacologically held in the open state. This is achieved by treating the cells with veratridine.
Each HEK293 cells expressing human NaV1.3 channels and HEK293 cells expressing human NaV1.5 channels were grown in T225 flasks, in a 5% CO2 humidified incubator to about 80% confluence. Media composition consisted of Dulbecco's Modified Eagle Medium (high glucose), 10% fetal calf serum (FCS), 100 units/ml Penicillin, 100 microgram/ml Streptomycin and 500 microgram/ml Geneticine.
(§3) • Seed each cell lines (1.5×10^4 cells/well) into poly-D-lysine coated 384-well plates prior to experimentation. • Incubate at 37° C. in 5% CO2 for 24 hours. • Wash each well with buffer #1 (140 mM NaCl, 4.5 mM KCl, 10 mM D-Glucose, 2 mM CaCl2, 1 mM MgCl2, 10 mM HEPES, pH 7.4 adjusted with NaOH) twice using plate washer. • Add 1st loading solution containing 5 μM CC2-DMPE and 0.02% Pluronic F-127 in buffer #1. • Incubate the plate at room temperature in dark for 0.5 hours. • Wash each well with buffer #2 (160 mM Choline, 10 mM D-Glucose, 0.1 mM CaCl2, 1 mM MgCl2, 10 mM HEPES, pH 7.4 adjusted with KOH) twice using plate washer. • Add 2nd loading solution containing 15 μM DiSBAC2(3), 0.5 mM VABSC-1, 10 μM veratridine and 0.004% Pluronic F-127 in buffer #2. • Add compound solutions into the assay plate and leave the plate for 30 minutes under the dark at room temperature. • Measure by FDSS.
(§4) The data was analyzed and reported as normalized ratios of intensities measured in the 465 nm and 575 nm channels. The process of calculating these ratios was performed as follows:
(§5) “FI465B”=the mean of fluorescence intensity as baseline (before Na+ ligand addition) at 465 nm
(§6) “FI575B”=the mean of fluorescence intensity as baseline (before Na+ ligand addition) at 575 nm
(§7) “FI465Max”=maximum fluorescence intensity at 465 nm after Na+ stimulation
(§8) “FI575 Min”=minimum fluorescence intensity at 575 nm after Na+ stimulation
(§9) This analysis was performed using a computerized specific program designed for FDSS generated data. Fluorescence ratio values were plotted using XLfit to determine an IC50 value for each compound.

Assay [2] has as its target T2, human Nav1.7 (Homo sapiens, UniProt Q15858).
T2 construct: expressed in transfected cells; host or cells: CHO
The experiment in a line: FRET assay, human Nav1.7 channels expressed in CHO cells. It counts as cell-based. As to conditions: CHO cells expressing human NaV1.7, veratridine-opened channels. As to the method: as §1, §2
CHO cells expressing human NaV1.7 channels were grown in T225 flasks, in a 5% CO 2 humidified incubator to about 80% confluence. Media composition consisted of HAM/F12 with Glutamax 1.10% fetal calf serum (FCS), 100 units/ml Penicillin and 100 microgram/ml Hygromycin.
as §3, §4, §5, §6, §7, §8, §9

Consider 22 compounds from US8969383B2, “Picolinamide derivatives as TTX-S blockers” (RaQualia Pharma Inc., priority 2009, dated 2015).

As a reminder, the IC50 is the concentration that inhibits the measured activity by half. Higher therefore signals lower potency.

T1 sequence (Q9NY46 whole entry): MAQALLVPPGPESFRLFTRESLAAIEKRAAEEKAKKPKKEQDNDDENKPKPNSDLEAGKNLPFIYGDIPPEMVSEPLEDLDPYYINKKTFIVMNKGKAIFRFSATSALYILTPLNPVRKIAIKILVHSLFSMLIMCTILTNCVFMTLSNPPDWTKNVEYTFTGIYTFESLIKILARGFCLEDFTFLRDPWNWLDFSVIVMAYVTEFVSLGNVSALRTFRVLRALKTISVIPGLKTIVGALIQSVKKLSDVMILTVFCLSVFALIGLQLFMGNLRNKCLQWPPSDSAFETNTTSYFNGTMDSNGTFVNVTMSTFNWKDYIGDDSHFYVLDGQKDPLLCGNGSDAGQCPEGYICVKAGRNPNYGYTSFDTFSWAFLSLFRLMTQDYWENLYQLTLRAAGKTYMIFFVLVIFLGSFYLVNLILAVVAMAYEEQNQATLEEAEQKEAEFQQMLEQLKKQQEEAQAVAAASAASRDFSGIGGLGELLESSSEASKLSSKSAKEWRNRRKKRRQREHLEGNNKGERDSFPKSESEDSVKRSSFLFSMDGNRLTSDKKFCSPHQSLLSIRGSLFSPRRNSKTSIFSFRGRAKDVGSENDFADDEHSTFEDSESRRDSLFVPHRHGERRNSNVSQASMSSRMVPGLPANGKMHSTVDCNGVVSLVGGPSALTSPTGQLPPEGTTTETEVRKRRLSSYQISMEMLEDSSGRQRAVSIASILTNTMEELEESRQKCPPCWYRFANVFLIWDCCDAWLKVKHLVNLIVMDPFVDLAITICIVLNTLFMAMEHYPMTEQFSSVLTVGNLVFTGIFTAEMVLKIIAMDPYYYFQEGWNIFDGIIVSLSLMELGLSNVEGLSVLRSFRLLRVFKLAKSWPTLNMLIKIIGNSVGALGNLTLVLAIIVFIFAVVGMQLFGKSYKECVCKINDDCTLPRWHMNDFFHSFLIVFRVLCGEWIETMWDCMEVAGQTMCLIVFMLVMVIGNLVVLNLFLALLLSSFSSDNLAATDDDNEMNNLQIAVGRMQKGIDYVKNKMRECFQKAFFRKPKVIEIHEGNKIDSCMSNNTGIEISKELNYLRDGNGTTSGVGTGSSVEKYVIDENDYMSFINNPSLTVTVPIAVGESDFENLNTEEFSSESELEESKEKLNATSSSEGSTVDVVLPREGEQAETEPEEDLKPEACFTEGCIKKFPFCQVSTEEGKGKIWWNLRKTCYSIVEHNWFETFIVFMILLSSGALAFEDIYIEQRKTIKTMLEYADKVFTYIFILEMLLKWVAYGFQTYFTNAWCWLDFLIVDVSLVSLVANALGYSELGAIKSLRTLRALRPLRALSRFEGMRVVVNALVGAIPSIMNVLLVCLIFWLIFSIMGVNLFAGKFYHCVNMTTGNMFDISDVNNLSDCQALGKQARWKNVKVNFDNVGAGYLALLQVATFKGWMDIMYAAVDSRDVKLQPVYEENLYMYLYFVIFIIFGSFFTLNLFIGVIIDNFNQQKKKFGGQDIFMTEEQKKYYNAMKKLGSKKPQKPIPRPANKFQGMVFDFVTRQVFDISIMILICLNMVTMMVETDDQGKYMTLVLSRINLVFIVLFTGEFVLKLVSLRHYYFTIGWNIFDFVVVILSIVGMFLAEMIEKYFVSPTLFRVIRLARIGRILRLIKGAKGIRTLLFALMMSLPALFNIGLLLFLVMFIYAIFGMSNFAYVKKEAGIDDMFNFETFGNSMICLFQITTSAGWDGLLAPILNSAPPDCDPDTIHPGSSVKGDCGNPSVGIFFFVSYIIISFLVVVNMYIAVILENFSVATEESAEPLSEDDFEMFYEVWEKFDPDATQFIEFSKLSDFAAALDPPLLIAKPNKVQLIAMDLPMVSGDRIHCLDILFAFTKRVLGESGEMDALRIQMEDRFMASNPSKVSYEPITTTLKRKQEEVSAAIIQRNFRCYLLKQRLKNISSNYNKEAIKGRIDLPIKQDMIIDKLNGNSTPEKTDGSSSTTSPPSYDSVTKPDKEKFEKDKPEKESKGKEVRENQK
T2 sequence (Q15858 whole entry): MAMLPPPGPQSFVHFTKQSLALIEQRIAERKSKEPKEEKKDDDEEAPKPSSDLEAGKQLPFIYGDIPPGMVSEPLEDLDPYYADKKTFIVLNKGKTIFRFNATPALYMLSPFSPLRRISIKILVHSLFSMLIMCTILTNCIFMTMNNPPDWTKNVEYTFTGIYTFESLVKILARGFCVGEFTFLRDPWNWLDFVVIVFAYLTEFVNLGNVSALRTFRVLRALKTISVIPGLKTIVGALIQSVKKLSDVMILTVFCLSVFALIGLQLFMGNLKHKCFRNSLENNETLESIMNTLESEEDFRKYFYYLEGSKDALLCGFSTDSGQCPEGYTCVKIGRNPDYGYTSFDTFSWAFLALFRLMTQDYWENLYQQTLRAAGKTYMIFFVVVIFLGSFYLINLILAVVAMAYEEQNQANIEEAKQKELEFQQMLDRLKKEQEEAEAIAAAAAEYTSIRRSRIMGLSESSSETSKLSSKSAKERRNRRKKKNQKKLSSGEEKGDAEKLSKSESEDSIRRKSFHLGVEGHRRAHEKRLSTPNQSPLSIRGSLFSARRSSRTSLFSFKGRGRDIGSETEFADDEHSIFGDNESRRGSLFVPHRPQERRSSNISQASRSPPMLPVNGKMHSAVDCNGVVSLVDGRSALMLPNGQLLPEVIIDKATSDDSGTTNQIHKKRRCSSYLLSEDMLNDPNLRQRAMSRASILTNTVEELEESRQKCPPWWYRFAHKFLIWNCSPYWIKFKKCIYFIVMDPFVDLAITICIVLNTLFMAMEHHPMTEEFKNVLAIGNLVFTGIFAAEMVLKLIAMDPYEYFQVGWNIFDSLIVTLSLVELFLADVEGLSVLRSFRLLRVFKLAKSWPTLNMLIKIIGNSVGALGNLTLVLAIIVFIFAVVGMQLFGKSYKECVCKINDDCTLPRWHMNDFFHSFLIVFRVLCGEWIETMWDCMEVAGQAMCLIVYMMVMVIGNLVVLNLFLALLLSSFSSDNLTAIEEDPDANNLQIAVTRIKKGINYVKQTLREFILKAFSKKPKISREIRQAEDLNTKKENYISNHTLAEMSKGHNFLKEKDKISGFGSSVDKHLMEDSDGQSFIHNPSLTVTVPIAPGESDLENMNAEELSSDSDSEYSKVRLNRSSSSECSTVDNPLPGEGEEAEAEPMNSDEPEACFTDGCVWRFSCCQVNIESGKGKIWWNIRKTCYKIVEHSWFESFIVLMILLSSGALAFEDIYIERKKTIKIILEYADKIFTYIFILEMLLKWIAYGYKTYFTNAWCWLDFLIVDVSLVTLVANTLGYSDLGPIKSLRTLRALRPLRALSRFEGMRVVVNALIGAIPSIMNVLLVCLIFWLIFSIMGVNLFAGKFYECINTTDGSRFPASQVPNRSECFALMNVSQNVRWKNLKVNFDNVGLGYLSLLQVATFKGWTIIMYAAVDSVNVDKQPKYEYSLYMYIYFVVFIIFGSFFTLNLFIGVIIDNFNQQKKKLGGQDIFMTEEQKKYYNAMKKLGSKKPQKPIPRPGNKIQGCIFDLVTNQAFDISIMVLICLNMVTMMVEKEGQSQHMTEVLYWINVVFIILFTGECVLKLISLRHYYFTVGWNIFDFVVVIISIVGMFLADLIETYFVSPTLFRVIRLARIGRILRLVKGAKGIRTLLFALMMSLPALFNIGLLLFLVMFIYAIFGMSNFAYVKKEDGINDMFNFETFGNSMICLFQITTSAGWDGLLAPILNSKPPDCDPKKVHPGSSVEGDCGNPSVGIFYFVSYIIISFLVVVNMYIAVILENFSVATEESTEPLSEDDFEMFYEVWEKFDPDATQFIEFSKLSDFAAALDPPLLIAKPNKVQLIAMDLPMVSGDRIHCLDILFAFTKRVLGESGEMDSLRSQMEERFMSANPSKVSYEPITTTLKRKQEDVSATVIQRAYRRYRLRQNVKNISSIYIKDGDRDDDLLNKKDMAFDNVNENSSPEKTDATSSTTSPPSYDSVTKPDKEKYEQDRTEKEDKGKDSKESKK

For the compound `O=C(Nc1ncns1)c1ncccc1OC[C@H]1CCCN1C(=O)[C@H]1CC[C@H](C(F)(F)F)CC1` [Example 47, N-(1,2,4-thiadiazol-5-yl)-3-(((R)-1-(trans-4-(trifluoromethyl)cyclohexanecarbonyl)pyrrolidin-2-yl)methoxy) picolinamide], the IC50 in assay [1] and in assay [2] was at most 500 nM each time.

For `COCCNC(=O)c1ncccc1OC[C@H]1CCCN1C(=O)[C@H]1CC[C@H](C(F)(F)F)CC1` [Example 37, N-(2-methoxyethyl)-3-(((R)-1-(trans-4-(trifluoromethyl)cyclohexanecarbonyl)pyrrolidin-2-yl)methoxy)picolinamide], the IC50 in assay [1] and in assay [2] was at most 500 nM throughout.

Consider `NC(=O)c1ncccc1OC[C@H]1CCCN1C(=O)c1ccc(OCC(F)(F)F)cc1` [Example 21, (R)-3-((1-(4-(2,2,2-trifluoroethoxy)benzoyl)pyrrolidin-2-yl)methoxy)picolinamide], for which the IC50 in assay [1] and in assay [2] was at most 500 nM in each case.

Regarding `O=C(Nc1ccon1)c1ncccc1OC[C@H]1CCCN1C(=O)c1cc(C2CC2)on1` [Example 65], the IC50 in assay [1] and in assay [2] was at most 500 nM each time.

As for `O=C(N[C@H](CO)c1ccccc1)c1ncccc1OC[C@H]1CCCN1C(=O)[C@H]1CC[C@H](C(F)(F)F)CC1` [Example 43, N-((S)-2-hydroxy-1-phenylethyl)-3-(((R)-1-(trans-4-(trifluoromethyl)cyclohexanecarbonyl)pyrrolidin-2-yl)methoxy) picolinamide], the IC50 in assay [1] and in assay [2] was at most 500 nM each time.

As to `COC(=O)CNC(=O)c1ncccc1OC[C@H]1CCCN1C(=O)[C@H]1CC[C@H](C(F)(F)F)CC1` [Example 35, methyl 2-(3-(((R)-1-(trans-4-(trifluoromethyl)cyclohexanecarbonyl)pyrrolidin-2-yl)methoxy)picolinamido)acetate], the half-maximal inhibitory concentration (IC50) in assay [1] and in assay [2] was at most 500 nM in each case.

Turning to `O=C(NCCN1CCOCC1)c1ncccc1OC[C@H]1CCCN1C(=O)c1cccc(C(F)(F)F)c1` [Example 68, (R)-N-(2-morpholinoethyl)-3-((1-(3-(trifluoromethyl)benzoyl)pyrrolidin-2-yl)methoxy) picolinamide], the IC50 in assay [1] and in assay [2] was at most 500 nM each time.

As to `NC(=O)c1ncccc1OC[C@H]1CCCN1C(=O)COc1ccc(C(F)(F)F)cc1` [Example 18, (R)-3-((1-(2-(4-(trifluoromethyl)phenoxy)acetyl)pyrrolidin-2-yl)methoxy)picolinamide], the IC50 in assay [1] and in assay [2] was at most 500 nM each time.

On to `O=C(Nc1ccon1)c1ncccc1OC[C@H]1CCCN1C(=O)[C@H]1CC[C@H](C(F)(F)F)CC1` [Example 54, N-(isoxazol-3-yl)-3-(((R)-1-(trans-4-(trifluoromethyl)cyclohexanecarbonyl)pyrrolidin-2-yl)methoxy)picolinamide], for which the IC50 in assay [1] and in assay [2] was at most 500 nM throughout.

Turning to `NC(=O)c1ncccc1OC[C@H]1CCCN1C(=O)c1ccc(OC(F)(F)F)cc1` [Example 25, (R)-3-((1-(4-(trifluoromethoxy)benzoyl)pyrrolidin-2-yl)methoxy) picolinamide], the IC50 in assay [1] and in assay [2] was at most 500 nM throughout.

As for `CC(C)(C)c1cc(C(=O)N2CCC[C@@H]2COc2cccnc2C(N)=O)no1` [Example 17, (R)-3-((1-(5-tert-butylisoxazole-3-carbonyl)pyrrolidin-2-yl)methoxy)picolinamide], the IC50 in assay [1] and in assay [2] was at most 500 nM in each case.

As to `O=C(NCC1(O)CCCCC1)c1ncccc1OC[C@H]1CCCN1C(=O)[C@H]1CC[C@H](C(F)(F)F)CC1` [Example 39, N-((1-hydroxycyclohexyl)methyl)-3-(((R)-1-(trans-4-(trifluoromethyl)cyclohexanecarbonyl)pyrrolidin-2-yl)methoxy)picolinamide], the IC50 in assay [1] and in assay [2] was at most 500 nM in each case.

In the case of `NC(=O)c1ncccc1OC[C@@H]1CCCN1C(=O)[C@H]1CC[C@@H](C(F)(F)F)CC1` [Example 2, 3-(((S)-1-(cis-4-(trifluoromethyl)cyclohexanecarbonyl)pyrrolidin-2-yl)methoxy)picolinamide], the IC50 in assay [1] and in assay [2] was at most 500 nM throughout.

For `O=C(Nc1ncco1)c1ncccc1OC[C@H]1CCCN1C(=O)[C@H]1CC[C@@H](C(F)(F)F)CC1` [Example 63, N-(oxazol-2-yl)-3-(((R)-1-(cis-4-(trifluoromethyl)cyclohexanecarbonyl)pyrrolidin-2-yl)methoxy)picolinamide], the IC50 in assay [1] and in assay [2] was at most 500 nM each time.

With `NC(=O)c1ncc(Cl)cc1OC[C@H]1CCCN1C(=O)[C@H]1CC[C@H](C(F)(F)F)CC1` [Example 30, 5-chloro-3-(((R)-1-(trans-4-(trifluoromethyl)cyclohexanecarbonyl)pyrrolidin-2-yl)methoxy)picolinamide], the IC50 in assay [1] and in assay [2] was at most 500 nM each time.

As to `O=C(NCc1ccccc1)c1ncccc1OC[C@H]1CCCN1C(=O)[C@H]1CC[C@H](C(F)(F)F)CC1` [Example 41, N-benzyl-3-(((R)-1-(trans-4-(trifluoromethyl)cyclohexanecarbonyl)pyrrolidin-2-yl)methoxy) picolinamide], the IC50 in assay [1] and in assay [2] was at most 500 nM each time.

As for `COc1cnc(C(N)=O)c(OC[C@H]2CCCN2C(=O)[C@H]2CC[C@H](C(F)(F)F)CC2)c1` [Example 31, 5-methoxy-3-(((R)-1-(trans-4-(trifluoromethyl)cyclohexanecarbonyl)pyrrolidin-2-yl)methoxy)picolinamide], the IC50 in assay [1] and in assay [2] was at most 500 nM each time.

Take `O=C(NC1CCOCC1)c1ncccc1OC[C@H]1CCCN1C(=O)[C@H]1CC[C@H](C(F)(F)F)CC1` [Example 49, N-(tetrahydro-2H-pyran-4-yl)-3-(((R)-1-(trans-4-(trifluoromethyl)cyclohexanecarbonyl)pyrrolidin-2-yl)methoxy) picolinamide]: the IC50 in assay [1] and in assay [2] was at most 500 nM each time.

Take `O=C(NCCO)c1ncccc1OC[C@H]1CCCN1C(=O)c1cccc(C(F)(F)F)c1` [Example 69, (R)-N-(2-hydroxyethyl)-3-((1-(3-(trifluoromethyl)benzoyl)pyrrolidin-2-yl)methoxy) picolinamide]: the IC50 in assay [1] and in assay [2] was at most 500 nM each time.

As to `O=C(NCc1ccccn1)c1ncccc1OC[C@H]1CCCN1C(=O)[C@H]1CC[C@H](C(F)(F)F)CC1` [Example 40, N-(pyridin-2-ylmethyl)-3-(((R)-1-(trans-4-(trifluoromethyl)cyclohexanecarbonyl)pyrrolidin-2-yl)methoxy)picolinamide], the IC50 in assay [1] and in assay [2] was at most 500 nM in each case.

For the compound `O=C(Nc1ncco1)c1ncccc1OC[C@@H]1CCCN1C(=O)[C@H]1CC[C@@H](C(F)(F)F)CC1` [Example 62, N-(oxazol-2-yl)-3-(((S)-1-(cis-4-(trifluoromethyl)cyclohexanecarbonyl)pyrrolidin-2-yl)methoxy)picolinamide], the concentration for half-maximal inhibition (IC50) in assay [1] and in assay [2] was at most 500 nM each time.

`NC(=O)c1ncccc1OC[C@H]1CCCN1C(=O)c1ccc(C(F)(F)F)cc1` [Example 5, (R)-3-((1-(4-(trifluoromethyl)benzoyl)pyrrolidin-2-yl)methoxy) picolinamide]: the half-inhibitory concentration (IC50) in assay [1] and in assay [2] was at most 500 nM in each case.
